Experimental findings from article PMC5622430, “A Drosophila female pheromone elicits species-specific long-range attraction via an olfactory channel with dual specificity for sex and food” (BMC Biology, 2017) are described below.

SMILES strings stand for the structures.

The target in one assay is T1, Or69aB (Drosophila melanogaster, UniProt P82985).
T1 construct: gene Or69a; full ORF cloned from antennal cDNA into pUAS.g-HA.attB; expressed in Dhalo ab3A empty neurons (Or22a-Gal4), endogenous Orco; with Odorant receptor coreceptor
T1 sequence (P82985 1-393): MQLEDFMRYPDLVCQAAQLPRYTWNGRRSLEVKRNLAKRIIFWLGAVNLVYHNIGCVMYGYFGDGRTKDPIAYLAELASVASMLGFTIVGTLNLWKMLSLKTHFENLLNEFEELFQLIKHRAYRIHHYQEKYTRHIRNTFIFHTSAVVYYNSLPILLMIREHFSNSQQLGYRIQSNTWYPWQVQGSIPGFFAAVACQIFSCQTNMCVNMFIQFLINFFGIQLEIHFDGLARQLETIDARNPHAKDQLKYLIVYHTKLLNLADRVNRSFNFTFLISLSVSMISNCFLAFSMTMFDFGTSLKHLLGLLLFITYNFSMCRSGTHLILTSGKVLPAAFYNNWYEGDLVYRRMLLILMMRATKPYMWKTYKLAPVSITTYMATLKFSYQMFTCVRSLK
T1 sequence (Q9VNB5 1-486 partner): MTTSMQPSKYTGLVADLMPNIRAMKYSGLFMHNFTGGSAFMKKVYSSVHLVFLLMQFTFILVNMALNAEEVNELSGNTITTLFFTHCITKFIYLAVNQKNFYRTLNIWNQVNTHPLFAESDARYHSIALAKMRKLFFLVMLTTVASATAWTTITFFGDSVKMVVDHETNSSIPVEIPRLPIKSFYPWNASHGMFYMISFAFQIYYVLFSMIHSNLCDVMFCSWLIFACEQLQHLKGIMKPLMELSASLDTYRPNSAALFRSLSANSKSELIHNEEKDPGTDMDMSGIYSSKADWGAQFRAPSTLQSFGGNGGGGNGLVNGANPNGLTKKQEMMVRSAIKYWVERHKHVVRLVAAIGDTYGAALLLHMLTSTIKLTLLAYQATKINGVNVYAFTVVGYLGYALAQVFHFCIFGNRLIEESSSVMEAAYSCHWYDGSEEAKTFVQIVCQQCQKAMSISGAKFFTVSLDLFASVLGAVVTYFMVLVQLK
Briefly: single sensillum recording, empty ab3A neuron. It is filed as cell-based. Particulars: 10 ug on filter paper, 0.5 s puff; activation (agonist).
For `C=C(C)[C@@H]1CC=C(C)C(=O)C1` [compound 8, (R)-carvone], the “SSR response (spikes/s)” value is given as “(R)-carvone, which elicited the strongest Or69aB response”.
Same read-out and setting: then `C=C(C)[C@H]1CC=C(C)C(=O)C1` [(S)-carvone], with “Or69aB responds best to both isomers of carvone”.
For the compound `CCCCCC/C=C\CCC=O` [compound 10, (Z)-4-undecenal], the “SSR response (spikes/s)” value is on record as “Or69aB responds best to both isomers of carvone, followed by Z4-11Al”.

The next assay has as its target T2, Or69aA (Drosophila melanogaster, UniProt Q9VU27).
T2 construct: gene Or69a; full ORF cloned from antennal cDNA into pUAS.g-HA.attB; expressed in Dhalo ab3A empty neurons (Or22a-Gal4), endogenous Orco; with Odorant receptor coreceptor
T2 sequence (Q9VU27 1-393): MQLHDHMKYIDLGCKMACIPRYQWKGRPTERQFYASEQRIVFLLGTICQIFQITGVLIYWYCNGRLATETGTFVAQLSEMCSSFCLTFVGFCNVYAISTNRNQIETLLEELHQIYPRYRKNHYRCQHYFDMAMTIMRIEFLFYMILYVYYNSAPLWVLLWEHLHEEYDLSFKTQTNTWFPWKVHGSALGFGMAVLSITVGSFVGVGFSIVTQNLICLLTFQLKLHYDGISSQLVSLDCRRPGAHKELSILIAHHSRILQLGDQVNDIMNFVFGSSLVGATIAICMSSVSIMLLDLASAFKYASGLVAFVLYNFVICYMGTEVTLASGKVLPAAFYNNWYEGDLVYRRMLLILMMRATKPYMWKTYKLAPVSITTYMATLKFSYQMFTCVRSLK
T2 sequence (Q9VNB5 1-486 partner): T1 sequence (Q9VNB5 1-486 partner)
The assay can be described thus: single sensillum recording, empty ab3A neuron. Particulars: 10 ug on filter paper, 0.5 s puff; activation (agonist). It is filed as cell-based.
For `C=C[C@](C)(O)CCC=C(C)C` [compound 4, (R)-linalool], the “SSR response (spikes/s)” value was “The most active ligands (S)-α-terpineol and (S)- and (R)-linalool”.
On the same count and under the same terms, then `C=C[C@@](C)(O)CCC=C(C)C` [(S)-linalool], with “The most active ligands (S)-α-terpineol and (S)- and (R)-linalool”.
`CC1=CC[C@@H](C(C)(C)O)CC1` [compound 1, (S)-α-terpineol]: the “SSR response (spikes/s)” value was “The most active ligands (S)-α-terpineol and (S)- and (R)-linalool”.
